In ChEMBL document CHEMBL1201862, “PubChem BioAssay data set” (2004):
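Values below derive from 48-hour exposures of cells grown in 96-well plates, with endpoints linearly interpolated between the two concentrations bracketing the appropriate inhibition level. The concentration for 50% growth inhibition is given as GI50.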 Calls of active or inactive are those of the source. Rule as the data show it: active = GI50 up to about 1.1 µM and inactive = higher.

Key:
Experiment in all cases: inhibition of tumour cell growth, NCI panel, 48 h
SNB-75 = tested on: SNB-75
NCI/ADR-RES = tested on: NCI/ADR-RES
OVCAR-4 = tested on: OVCAR-4
DU-145 = tested on: DU-145
A549 = tested on: A549
M14 = tested on: M14
HCT-116 = tested on: HCT-116
TK-10 = tested on: TK-10
SK-MEL-28 = tested on: SK-MEL-28
OVCAR-3 = tested on: OVCAR-3
786-0 = tested on: 786-0
T47D = tested on: T47D
MDA-MB-435 = tested on: MDA-MB-435
SK-OV-3 = tested on: SK-OV-3
HOP-92 = tested on: HOP-92
MDA-MB-231 = tested on: MDA-MB-231
SN12C = tested on: SN12C
Hs-578T = tested on: Hs-578T
SNB-19 = tested on: SNB-19
SF-539 = tested on: SF-539

| SMILES | GI50 (SNB-75) | GI50 (NCI/ADR-RES) | GI50 (OVCAR-4) | GI50 (DU-145) | GI50 (A549) | GI50 (M14) | GI50 (HCT-116) | GI50 (TK-10) | GI50 (SK-MEL-28) | GI50 (OVCAR-3) | GI50 (786-0) | GI50 (T47D) | GI50 (MDA-MB-435) | GI50 (SK-OV-3) | GI50 (HOP-92) | GI50 (MDA-MB-231) | GI50 (SN12C) | GI50 (Hs-578T) | GI50 (SNB-19) | GI50 (SF-539) |
| --- | --- | --- | --- | --- | --- | --- | --- | --- | --- | --- | --- | --- | --- | --- | --- | --- | --- | --- | --- | --- |
| Cc1ccc(C)c(NC(=O)C(Cc2c[nH]c3ccccc23)NC(=O)OCc2ccccc2)c1 (stereo not given) | 11.3 µM (inactive) | 11.1 µM (inactive) | 5.12 µM (inactive) | 13.5 µM (inactive) | 13.2 µM (inactive) | 13.6 µM (inactive) | 23 µM (inactive) | 15.3 µM (inactive) | 25.8 µM (inactive) | 29.7 µM (inactive) | 15.5 µM (inactive) | 9.18 µM (inactive) | 21.9 µM (inactive) | 20.1 µM (inactive) | 17.2 µM (inactive) | 16.1 µM (inactive) | 24.7 µM (inactive) | 58.7 µM (inactive) | 13.8 µM (inactive) | 8.53 µM (inactive) |
| COc1ccc(CNc2nc(NC3CCCCC3)nc(NC3CCCCC3)n2)cc1 | 8.81 µM (inactive) | 4.24 µM (inactive) | 4.02 µM (inactive) | 5.6 µM (inactive) | 5.38 µM (inactive) | 4.42 µM (inactive) | 2.85 µM (inactive) | 10 µM (inactive) | 20.6 µM (inactive) | 11.3 µM (inactive) | 5.71 µM (inactive) | 3.41 µM (inactive) | 21.8 µM (inactive) | > 100 µM (inactive) | 8.75 µM (inactive) | 3.44 µM (inactive) | 6.53 µM (inactive) | 7.29 µM (inactive) | > 100 µM (inactive) | 8.28 µM (inactive) |
| OC1CCN(c2c3ccccc3nc3ccccc23)CC1 | 23.8 µM (inactive) | > 100 µM (inactive) | 17.6 µM (inactive) | 5.22 µM (inactive) | 44.4 µM (inactive) | 6.92 µM (inactive) | 4.84 µM (inactive) | 4.03 µM (inactive) | 2.69 µM (inactive) | 7.23 µM (inactive) | 4.99 µM (inactive) | 1.51 µM (inactive) | 19.7 µM (inactive) | 39.7 µM (inactive) | 6.9 µM (inactive) | 25.1 µM (inactive) | 32.4 µM (inactive) | 35.1 µM (inactive) | 27.9 µM (inactive) | 33 µM (inactive) |
| c1ccc(CN2COc3c(ccc4c5c(ccc34)CN(Cc3ccccc3)CO5)C2)cc1 | > 100 µM (inactive) | > 100 µM (inactive) | > 100 µM (inactive) | > 100 µM (inactive) | > 100 µM (inactive) | > 100 µM (inactive) | > 100 µM (inactive) | > 100 µM (inactive) | > 100 µM (inactive) | > 100 µM (inactive) | > 100 µM (inactive) | > 100 µM (inactive) | > 100 µM (inactive) | > 100 µM (inactive) | > 100 µM (inactive) | > 100 µM (inactive) | > 100 µM (inactive) | > 100 µM (inactive) | > 100 µM (inactive) | > 100 µM (inactive) |
| N#CC1(C#N)[C@@H]2CCC=C(Sc3ccccc3)[C@@H]21 | 20.9 µM (inactive) | 18.4 µM (inactive) | 14.3 µM (inactive) | 16 µM (inactive) | 23.4 µM (inactive) | 13.2 µM (inactive) | 15.7 µM (inactive) | 14.6 µM (inactive) | 15 µM (inactive) | 17.2 µM (inactive) | 16.1 µM (inactive) | 22.1 µM (inactive) | 12.9 µM (inactive) | 19.5 µM (inactive) | 14.9 µM (inactive) | 22.2 µM (inactive) | 16.4 µM (inactive) | > 100 µM (inactive) | 23.9 µM (inactive) | 15.5 µM (inactive) |
| CC(=O)OC(C(=O)NNC(=O)OC(C)(C)C)c1ccccc1 (stereo not given) | > 100 µM (inactive) | > 100 µM (inactive) |  | > 100 µM (inactive) | > 100 µM (inactive) | > 100 µM (inactive) |  | > 100 µM (inactive) | > 100 µM (inactive) | > 100 µM (inactive) | > 100 µM (inactive) | > 100 µM (inactive) | > 100 µM (inactive) | > 100 µM (inactive) | > 100 µM (inactive) | > 100 µM (inactive) | > 100 µM (inactive) | > 100 µM (inactive) | > 100 µM (inactive) | > 100 µM (inactive) |
| COc1ccc(N(C(=O)NCCO)c2ccccc2)cc1 | > 100 µM (inactive) | > 100 µM (inactive) | > 100 µM (inactive) | > 100 µM (inactive) | > 100 µM (inactive) | > 100 µM (inactive) | > 100 µM (inactive) | > 100 µM (inactive) | > 100 µM (inactive) | > 100 µM (inactive) | > 100 µM (inactive) | > 100 µM (inactive) | > 100 µM (inactive) | > 100 µM (inactive) | > 100 µM (inactive) | > 100 µM (inactive) | > 100 µM (inactive) | > 100 µM (inactive) | > 100 µM (inactive) | > 100 µM (inactive) |
| COc1cc2c(cc1OC)C1c3ccccc3CCN1CC2 (stereo not given) | 44.6 µM (inactive) | 95.7 µM (inactive) | > 100 µM (inactive) | > 100 µM (inactive) | > 100 µM (inactive) | 45 µM (inactive) | 36.8 µM (inactive) | > 100 µM (inactive) | 79.3 µM (inactive) | > 100 µM (inactive) | > 100 µM (inactive) | 75.9 µM (inactive) | 37.2 µM (inactive) | > 100 µM (inactive) | 59.3 µM (inactive) | 68.7 µM (inactive) | 62.5 µM (inactive) | 58.2 µM (inactive) | > 100 µM (inactive) | 31.1 µM (inactive) |
| Cc1ccc(OC2CC(n3cnc4ncnc(Cl)c43)OC2Oc2ccc(C)cc2)cc1 (stereo not given) | 15.6 µM (inactive) | 18.8 µM (inactive) | 27.9 µM (inactive) | 15.7 µM (inactive) | 25.2 µM (inactive) | 18.1 µM (inactive) | 9.77 µM (inactive) | > 100 µM (inactive) | > 100 µM (inactive) | 14.6 µM (inactive) | > 100 µM (inactive) | 12.6 µM (inactive) | 39.1 µM (inactive) | > 100 µM (inactive) | 8.77 µM (inactive) | 17.5 µM (inactive) | 29.6 µM (inactive) | 21.8 µM (inactive) | 16.1 µM (inactive) | 7.78 µM (inactive) |
| CCOc1ccc2c(c1)c(=O)c1c(NCCN(CC)CC)ccc3nnn2c31 |  | 12.3 µM (inactive) | 11.9 µM (inactive) | 19.1 µM (inactive) | > 39.5 µM (inactive) | 35.2 µM (inactive) | > 25.4 µM (inactive) | 16.7 µM (inactive) | > 40.4 µM (inactive) | > 100 µM (inactive) | > 32.8 µM (inactive) | > 100 µM (inactive) | 16.9 µM (inactive) | > 100 µM (inactive) | 29.2 µM (inactive) | 18.6 µM (inactive) | 9.82 µM (inactive) | 57 µM (inactive) | > 79.8 µM (inactive) | 9.08 µM (inactive) |
| CCOC(=O)N1C=CC(=C2C(=C3C=CN(C(=O)OCC)C=C3)C(=C3C=CN(C(=O)OCC)C=C3)C2=C2C=CN(C(=O)OCC)C=C2)C=C1 | 47.1 µM (inactive) | 22.4 µM (inactive) | 38 µM (inactive) | 35.3 µM (inactive) | 24.4 µM (inactive) | 28.3 µM (inactive) | 11.1 µM (inactive) | 26 µM (inactive) | 27.5 µM (inactive) | 22.4 µM (inactive) | 28.6 µM (inactive) | 36.5 µM (inactive) | 22.2 µM (inactive) | 44 µM (inactive) | 0.0637 µM (active) | 10.4 µM (inactive) | 20.2 µM (inactive) | 16 µM (inactive) | 64.6 µM (inactive) | 25 µM (inactive) |
| C=C(CCC/C(C)=C/C=C/[C@]1(C)CCCc2ccoc21)CC(=O)O | > 100 µM (inactive) | > 100 µM (inactive) | > 100 µM (inactive) | 42.5 µM (inactive) | > 100 µM (inactive) | > 100 µM (inactive) | 60 µM (inactive) | > 100 µM (inactive) | > 100 µM (inactive) | 54.8 µM (inactive) | > 100 µM (inactive) | > 100 µM (inactive) | > 100 µM (inactive) | > 100 µM (inactive) | > 100 µM (inactive) | > 100 µM (inactive) | > 100 µM (inactive) | 50.5 µM (inactive) | > 100 µM (inactive) | > 100 µM (inactive) |
| CC1NC(C(=O)O)Cc2cc(O)c(O)cc21 (stereo not given) |  | > 100 µM (inactive) | > 100 µM (inactive) | > 100 µM (inactive) | > 100 µM (inactive) | > 100 µM (inactive) | > 100 µM (inactive) | > 100 µM (inactive) | > 100 µM (inactive) | > 100 µM (inactive) | > 100 µM (inactive) | > 100 µM (inactive) | > 100 µM (inactive) | > 100 µM (inactive) | > 100 µM (inactive) | > 100 µM (inactive) | > 100 µM (inactive) | > 100 µM (inactive) | > 100 µM (inactive) | > 100 µM (inactive) |
| CNc1ncnc2c1cnn2Cc1cn(CCCCO)nn1 |  | > 100 µM (inactive) | > 100 µM (inactive) | > 100 µM (inactive) | > 100 µM (inactive) | > 100 µM (inactive) | > 100 µM (inactive) | > 100 µM (inactive) | > 100 µM (inactive) | > 100 µM (inactive) | > 100 µM (inactive) | > 100 µM (inactive) | > 100 µM (inactive) | > 100 µM (inactive) | > 100 µM (inactive) | > 100 µM (inactive) | > 100 µM (inactive) | > 100 µM (inactive) | > 100 µM (inactive) | > 100 µM (inactive) |
